We go through 2 molecules from US8637664B2, “Alkyl 4- [4- (5-oxo-2,3,5, 11a-tetrahydo-5H-pyrrolo [2, 1-c] [1,4] benzodiazepine-8-yloxy)-butyrylamino]-1H-pyrrole-2-carboxylate derivatives and related compounds for the treatment of a proliferative disease” (Spirogen SARL, priority 2005, dated 2014).

In one test the test system is calf thymus DNA (CT-DNA). Briefly: DNA thermal denaturation (melting) studies. Format: binding. The conditions noted are these: CT-DNA 100 μM DNAp, compound 20 μM, 37 °C; for Induced ΔTm after incubation 0 hours: pH 7.00, 0 hours; for Induced ΔTm after incubation 4 hours: pH 7.00, 4 hours; for Induced ΔTm after incubation 18 hours: pH 7.00, 18 hours. In a few lines:
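CT-DNA at 100 μM (50 μM bp) with test compound at 20 μM in pH 7.00 10 mM sodium phosphate/1 mM EDTA, preincubated at 37.0 °C for 0–18 h (up to 72 h for some compounds). Absorbance at 260 nm, heated 1 °C/min over 45–98 °C; Tm from melting-profile midpoint, ΔTm versus free DNA, MeOH-corrected, mean±SD of ≥3.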

Test [1] concerns NF-Y binding at ICB1 of Topoisomerase IIα promoter. Kind of test: NF-Y gel shift assay (EMSA) at ICB1. On the technique in general: Mobility shift assays separate free from complexed probe on a gel.
In test [2] the test system is NF-Y binding at ICB2 of Topoisomerase IIα promoter. Kind of test: NF-Y gel shift assay (EMSA) at ICB2.
Test [3] relates to 170 bp sequence of the human Topo-IIa promoter. Kind of test: DNase I footprinting on Topo-IIa promoter (ICB1, ICB2 sites). In kind it is binding. On the procedure: In a similar manner to Example 4, the affinity and sequence selectivity of certain compounds of examples 1 and 2 was evaluated by standard DNA footprinting on a 170 bp sequence of the human Topo-IIa promoter, in accordance with the technique described in Martin, C., et al.
Selected results are shown in FIG. 9, wherein the concentrations of the lanes were 0, 1.6, 8, 40, 200, 1000, 5000 and 25000 nM in each case.
The footprinting results allowed the identification of compounds that could potentially disrupt transcription factor binding at the ICB1 and ICB2 sites. […] These compounds are detailed below in table 3, showing the concentrations (μM) at which the PBD-heterocycle conjugates bind at ICB1 and ICB2.

Turning to `COC(=O)c1cc(NC(=O)c2cc(NC(=O)c3cc(NC(=O)CCOc4cc5c(cc4OC)C(=O)N4CCC[C@H]4C=N5)cn3C)cn2C)cn1C` [Compound C11, (11aS) Methyl 4-{[4-({4-[4-(7-Methoxy-5-oxo-2,3,5,11a-tetrahydro-5H-pyrrolo[2,1-c][1,4]benzodiazepine-8-yloxy)-propionylamino]-1-methyl-1H-pyrrole-2-carbonyl]-amino)-1-methyl-1H-pyrrole-2-carbonyl]-amino}-1-methyl-1H-pyrrole-2-carboxylate], in the test on calf thymus DNA (CT-DNA), the “Induced ΔTm after incubation 0 hours” value was found to be 7.9 °C, the “Induced ΔTm after incubation 4 hours” value is 8.4 °C and the “Induced ΔTm after incubation 18 hours” value turned out to be 9.6 °C.

Turning to `COC(=O)c1cc(NC(=O)c2cc(NC(=O)CCCOc3cc4c(cc3OC)C(=O)N3CCC[C@H]3C=N4)cn2C)cn1C` [Compound 23, (11aS) Methyl 4-({4-[4-(7-Methoxy-6-oxo-2,3,5,11a-tetrahydro-5H-pyrrolo[2,1-c][1,4]benzodiazepine-8-yloxy)-butyrylamino]-1-methyl-1H-pyrrole-2-carbonyl}-amino)-1-methyl-1H-pyrrole-2-carboxylate], the “Lowest concentration at which NF-Y binding inhibition was observed” value in test [1] is 5 µM. Also, the “Lowest concentration at which NF-Y binding inhibition was observed” value in test [2] came to 5 µM. In the test on calf thymus DNA (CT-DNA), the “Induced ΔTm after incubation 0 hours” value was found to be 13.9 °C, the “Induced ΔTm after incubation 4 hours” value was 15.0 °C and the “Induced ΔTm after incubation 18 hours” value came to 15.6 °C. Moreover, the “Concentration at which DNA binding is observed, ICB1” value in test [3] (ICB1 site) was determined as 1 µM. Further, the “Concentration at which DNA binding is observed, ICB2” value in test [3] (ICB2 site) came to 1 µM.
